Measurements as given in ChEMBL document CHEMBL1136042, “Design, synthesis, and neuraminidase inhibitory activity of GS-4071 analogues that utilize a novel hydrophobic paradigm” (Bioorg Med Chem Lett, 2002).

Experiment: The compound was tested for its inhibition against Neuraminidase of the influenza RNA virus

SMILES	Ki
C=CC[C@H]1CC(C(=O)O)=C[C@@H](OC(CC)CC)[C@@H]1NC(C)=O	1300 nM
CC(=O)N[C@@H]1[C@@H](CCO)CC(C(=O)O)=C[C@H]1OC(C)C	4100 nM
C=CC[C@@H]1CC(C(=O)O)=C[C@@H](OC(C)C)[C@@H]1NC(C)=O	14000 nM
C=C[C@@H]1CC(C(=O)O)=C[C@@H](OC(C)C)[C@@H]1NC(C)=O	69000 nM
CCO[C@@H]1C=C(C(=O)O)C[C@H](N)[C@H]1NC(C)=O	180 nM
C=CC[C@H]1CC(C(=O)O)=C[C@@H](OC(C)C)[C@@H]1NC(C)=O	1100 nM
C=C[C@H]1CC(C(=O)O)=C[C@@H](OC(C)C)[C@@H]1NC(C)=O	45 nM
